Laboratory results reported in patent US7897614B2, “Preventive agent/remedial agent for constipation predominant IBS” (Mitsubishi Tanabe Pharma Corporation, priority 2001, dated 2011).
“Also recorded” adds a separate entry of the source.

Columns and labels:
[1] = tested on: patients suffering from constipation predominant IBS; assay: Double blind clinical test in patients with constipation predominant IBS (Rome II criteria); type: in vivo, human
Source text: Clinical effects of the medicament of the present invention on patients suffering from constipation predominant IBS were studied (in accordance with Rome II diagnosis criteria).
The test conducted here was a double blind test by two groups. […] Administration period consisted of 2-week screening and 4 week treatment. […] In addition, an ameliorating ratio of each symptom, that is, stool state, difficulty in defecation, feeling of residual stool after defecation, abdominal bloating, abdominal discomfort and abdominal pain is shown in FIG. 1

[2] = tested on: IBS patients; conditions: score 2 = marginal improvement, 3 = small improvement; Br J Pharm Pract 1987; cited from earlier work
[3] = 0.2 mg twice a day, 4 week treatment, 9 patients in the group

Compound | Ameliorating ratio of each symptom (stool state, difficulty in defecation, residual stool feeling, abdominal bloating, discomfort, pain), FIG. 1 ([1]; 0.2 mg group compared with placebo group) | Total impression of the patients: Aggravated (number of patients) [1, 3] | Total impression of the patients: Highly effective (number of patients) [1, 3] | Total impression of the patients: Moderately effective (number of patients) [1, 3] | Total impression of the patients: Not effective (number of patients) [1, 3] | Total impression of the patients: Slightly effective (number of patients) [1, 3] | Effectiveness relative to the placebo group ([1]; 0.2 mg twice a day, 4 weeks) | Ratio of effectiveness (total percentage of highly effective and moderately effective cases) ([1]; 0.2 mg twice a day, 4 weeks, placebo group 30%) [%] | Mean subjective score [2]
O=C(N[C@H]1CN2CCC1CC2)c1cnc2ccsc2c1O [the medicament of the present invention, (R)-N-(1-azabicyclo[2.2.2]oct-3-yl)-7-hydroxythieno[3,2-b]-pyridine-6-carboxamide] | exhibited an ameliorating ratio exceeding the placebo group in any symptoms | 0 | 0 | 5 | 2 | 2 | about twice; also recorded: about two fold | 56 | 
sennoside |  |  |  |  |  |  |  |  | 2.7
